Test results reported in patent US10526580B2, “Differentiated cell population of endothelial cells derived from human pluripotent stem cells, composition, system, kit and uses thereof” (BIOCANT-ASSOCIAÇÃO DE TRANSFERÊNCIA DE TECNOLOGIA, priority 2012, dated 2020).
Structures can show the parent of a compound that is named as a salt.

What follows are compounds tested on hESC-derived ECs versus ACL cells (assay: High-throughput screening of LOPAC library, PrestoBlue cell viability, hESC-derived ECs versus ACL cells). Settings: LOPAC screen, 4.5 μM, 4 days of incubation, PrestoBlue assay.
Format: cell-based, human
Description: High-throughput screening (HTS). HUAECS (Lonza) and hESC-derived ECs were cultured in EGM-2 medium while human anterior cruciate ligament cells (ACL cells) were cultured in Dulbecco's modified Eagle's medium (DMEM; PAA) supplemented with 10% FBS, 0.2 mM ascorbic acid 2-phosphate magnesium salt (Sigma Aldrich), […] streptomycin and 100 U/mL penicillin (Life Technologies). ACL cells were isolated from patients that have signed an informed consent form, in compliance with the Dutch legislation. The ethical committee of Medisch Spectrum Twente Hospital approved the collection.
The LOPAC library (Sigma-Aldrich) was used to screen embryonic endothelial-specific cytotoxic compounds. The compounds were solubilized in DMSO. The final compound concentration used in the screen was 4.5 μM in a final volume of 200 μL per well (96-well plate). HUAECs, hESC-derived EC and ACL cells were seeded at 16,000 cells/well (HUAECs and hESC-derived ECs) and 5,000 cells/well (ACL cells) and allowed to reach near confluence (approximately two days). After two days, medium was exchanged and test compounds and controls were added to the 96-well plates (all wells contained 0.25% (v/v) DMSO). After 4 days of incubation, cell viability was assessed using a PrestoBlue (Invitrogen) assay. This assay is based on a resazurin-based solution that indicates the reducing power of living cells and therefore measures indirectly their number. For each measurement, cell medium was removed and the PrestoBlue solution (10%) was added for 3 h at 37° C. upon which the absorbance was measured at 560-590 nm.
Disruption of vascular development has been directly correlated with prenatal loss, malformations and neurodevelopmental problems^41-44. […] The library was screened at a single dosage of 4.5 μM in a volume of 200 μL per well of EGM-2 medium, containing 0.25% DMSO (v/v). […] Six compounds (danazol, chlorpromazine hydrochloride, ellipticine, 3′,4′-dichlorobenzamil, fluphenazine dihydrochloride and 7-cyclopentyl-5-(4-phenoxy)phenyl-7H-pyrrolo[2,3-d]pyrimidin-4-ylamine) affected cell viability in both cells by a difference of 20% (FIG. 4B). The six compounds belong to different classes: cell cycle, ion pumps, dopamine pathway, phosphorylation and hormone signaling. The compounds selected from the primary screen were then tested against hESC-derived ECs and HUAECs at eight different concentrations to obtain a dose-response curve (FIG. 4C and FIG. 14).

First: COc1ccc(CCN(C)CCCC(C#N)(c2ccc(OC)c(OC)c2)C(C)C)cc1OC.Cl (racemic) [(±)-Verapamil hydrochloride]
Second: COCC(=O)O[C@]1(CCN(C)CCCc2nc3ccccc3[nH]2)CCc2cc(F)ccc2[C@@H]1C(C)C [Mibefradil dihydrochloride]
The “Differences (%) in cell viability (hESC-Derived ECs versus ACL cells)” value (“Differences (%) in cell viability” below) of the first is higher: 85.1% for the first, 62.2% for the second.

Compared with `CCCCCCCCCCCCCCCCCC(=O)NCC(COP(=O)([O-])OCC[N+](C)(C)C)OCC` (racemic) [rac-2-Ethoxy-3-octadecanamido-1-propylphosphocholine], `CCCCCCCC/C=C\CCCCCCCC(=O)NCCc1ccc(O)c(O)c1` [N-Oleoyldopamine] is lower in “Differences (%) in cell viability” value: 56.2% for the first, 54.8% for the second.

First: Cn1c(=O)c2[nH]c(-c3ccccc3)nc2n(C)c1=O [1,3-Dimethyl-8-phenylxanthine]
Second: Oc1cc(-c2ccccc2)nc2nc(Cl)ccc12 [7-Chloro-4-hydroxy-2-phenyl-1,8-naphthyridine]
The “Differences (%) in cell viability” value of the first is higher: 68.8% for the first, 59.1% for the second.

Compared with `COc1cc2c(cc1O)CC[C@@H]1[C@@H]2CC[C@]2(C)[C@@H](O)CC[C@@H]12` [2-methoxyestradiol], `CC[C@H]1CN2CCc3cc(OC)c(OC)cc3[C@@H]2C[C@@H]1C[C@H]1NCCc2cc(OC)c(OC)cc21` [Emetine dihydrochloride hydrate] is higher in “Differences (%) in cell viability” value: 84.3% for the first, 93.4% for the second.

Going from `O=c1[nH]c(=O)n([C@H]2C[C@H](O)[C@@H](CO)O2)cc1Br` [5-Bromo-2′-deoxyuridine] to `C[C@H]1O[C@@H](n2cc(F)c(=O)[nH]c2=O)[C@H](O)[C@@H]1O` [5-fluoro-5′-deoxyuridine], the “Differences (%) in cell viability” value rises from 53.9% to 60.8%.

First: Nc1ncn([C@@H]2O[C@H](CO)[C@@H](O)[C@H]2O)c(=O)n1 [5-azacytidine]
Second: CC[C@H](C)C(=O)O[C@H]1CCC=C2C=C[C@H](C)[C@H](CC[C@@H]3C[C@@H](O)CC(=O)O3)[C@H]21 [Mevastatin]
The “Differences (%) in cell viability” value of the first is lower: 56.1% for the first, 98.0% for the second.

First: CCN(CC)C(C)C(=O)N1c2ccccc2Sc2ccccc21.Cl (stereo not drawn) [10-(alpha-Diethylaminopropionyl)-phenothiazine hydrochloride]
Second: CN(C)CC/C=C1/c2ccccc2Sc2ccc(Cl)cc21 [Chlorprothixene hydrochloride]
The “Differences (%) in cell viability” value of the first is lower: 56.8% for the first, 58.1% for the second.

First: CS(=O)(=O)O.Cc1c(C(=O)c2cccc3ccccc23)c2cccc3c2n1[C@H](CN1CCOCC1)CO3 [(R)-(+)-WIN 55,212-2 mesylate]
Second: CC(C)[C@@]1(NC(=O)[C@@H]2C=C3c4cccc5[nH]cc(c45)C[C@H]3N(C)C2)O[C@@]2(O)[C@@H]3CCCN3C(=O)[C@H](Cc3ccccc3)N2C1=O [Ergocristine]
The “Differences (%) in cell viability” value of the first is higher: 97.7% for the first, 52.5% for the second.

Going from `CC[C@@]1(O)C(=O)OCc2c1cc1n(c2=O)Cc2cc3ccccc3nc2-1` [(S)-(+)-Camptothecin] to `COc1cc(OC)c(C=C2C(O)=Nc3ccccc32)c(OC)c1` [IC 261], the “Differences (%) in cell viability” value falls from 96.3% to 73.0%.

Going from `CC1=C(C)C(=O)C(CCCCC#CCCCC#CCO)=C(C)C1=O` [AA-861] to `O=C1c2c(O)ccc(O)c2C(=O)c2c(NCCNCCO)ccc(NCCNCCO)c21` [Mitoxantrone], the “Differences (%) in cell viability” value rises from 53.3% to 94.4%.

Going from `CC(/C=C/c1cccc(Oc2ccc(F)cc2)c1)N(O)C(N)=O` (stereo not shown) [BWB70C] to `CC(C)[C@H]1c2ccc(F)cc2CC[C@@]1(CCN(C)CCCc1nc2ccccc2[nH]1)OC(=O)C1CC1` [NNC 55-0396], the “Differences (%) in cell viability” value rises from 55.3% to 98.4%.

Compared with `C[C@H]1CCC/C=C/[C@@H]2C[C@H](O)C[C@H]2[C@H](O)/C=C/C(=O)O1` [Brefeldin A], `C[C@@H]1O[C@@H](O[C@H]2C[C@@H](O)[C@]3(CO)[C@H]4[C@H](O)C[C@]5(C)[C@@H](C6=CC(=O)OC6)CC[C@]5(O)[C@@H]4CC[C@]3(O)C2)[C@H](O)[C@H](O)[C@H]1O` [Ouabain] is lower in “Differences (%) in cell viability” value: 95.5% for the first, 94.6% for the second.

Compared with `C=CCc1ccccc1OCC(O)CNC1(C)CCC(C(C)(C)NC(=O)CBr)CC1` (stereo not shown) [Bromoacetyl alprenolol menthane], `NC(=O)OCC(COC(N)=O)c1ccccc1` [Felbamate] is lower in “Differences (%) in cell viability” value: 93.4% for the first, 50.5% for the second.

Going from `CNc1ccc2oc(C[C@H]3O[C@@]4(CC[C@H]3C)O[C@H]([C@H](C)C(=O)c3ccc[nH]3)[C@H](C)C[C@H]4C)nc2c1C(=O)O` [Calcimycin] to `CC(=O)[C@]1(O)Cc2c(O)c3c(c(O)c2[C@@H](O[C@H]2C[C@H](N)[C@H](O)[C@H](C)O2)C1)C(=O)c1ccccc1C3=O` [Idarubicin], the “Differences (%) in cell viability” value falls from 96.2% to 94.0%.

First: Clc1ccc(C(c2ccc(Cl)cc2)n2cc[n+](CC(OCc3ccc(Cl)cc3Cl)c3ccc(Cl)cc3Cl)c2)cc1 (stereo not shown) [Calmidazolium chloride]
Second: O=C1NCN(c2ccccc2)C12CCN(CCCC(c1ccc(F)cc1)c1ccc(F)cc1)CC2 [Fluspirilene]
The “Differences (%) in cell viability” value of the first is higher: 96.1% for the first, 86.7% for the second.

Compared with `CC1(C(=O)O)C2CCC(O2)C1(C)C(=O)O` (stereo not shown) [Cantharidic Acid], `C[C@@]12C(=O)OC(=O)[C@]1(C)[C@H]1CC[C@@H]2O1` [Cantharidin] is higher in “Differences (%) in cell viability” value: 93.8% for the first, 94.3% for the second.

Compared with `COc1cc2c(c(OC)c1OC)-c1ccc(OC)c(=O)cc1[C@@H](NC(C)=O)CC2` [Colchicine], `COc1ccc(NC(=O)c2ccc(-c3ccc(-c4noc(C)n4)cc3C)cc2)cc1N1CCN(C)CC1` [GR 127935 hydrochloride] is lower in “Differences (%) in cell viability” value: 67.4% for the first, 66.1% for the second.

First: CCn1c(=O)[nH]c2cc(Cl)c(Cl)cc21 [DCEBIO]
Second: O=C(Nc1ccc([N+](=O)[O-])cc1Cl)c1cc(Cl)ccc1O [Niclosamide]
The “Differences (%) in cell viability” value of the first is lower: 73.2% for the first, 97.6% for the second.

Compared with `Cc1cc(N)c2ccccc2[n+]1CCCCCCCCCCCCCC[n+]1c(C)cc(N)c2ccccc21` [Dequalinium analog, C-14 linker], `Cc1cc(N)c2ccccc2[n+]1CCCCCCCCCC[n+]1c(C)cc(N)c2ccccc21` [Dequalinium dichloride] is lower in “Differences (%) in cell viability” value: 96.6% for the first, 60.6% for the second.

First: C[C@@H]1O[C@@H](O[C@H]2C[C@@H](O)[C@]3(CO)[C@H]4[C@H](O)C[C@]5(C)[C@@H]([C@@H]6COC(=O)C6)CC[C@]5(O)[C@@H]4CC[C@]3(O)C2)[C@H](O)[C@H](O)[C@H]1O [Dihydroouabain]
Second: COc1cc([C@@H]2c3cc4c(cc3[C@@H](O[C@@H]3O[C@@H]5CO[C@@H](C)O[C@H]5[C@H](O)[C@H]3O)[C@H]3COC(=O)[C@H]23)OCO4)cc(OC)c1O [Etoposide]
The “Differences (%) in cell viability” value of the first is higher: 97.0% for the first, 59.6% for the second.

Compared with `c1ccc2c(c1)[I+]c1ccccc1-2` [Diphenyleneiodonium chloride], `O=C1Nc2ccccc2/C1=C1/Nc2ccccc2/C1=N\O` [Indirubin-3′-oxime] is higher in “Differences (%) in cell viability” value: 69.6% for the first, 85.5% for the second.

Compared with `CCOC(=O)C1=C(C)NC(C)=C(C(=O)OC)C1c1cccc(Cl)c1Cl` (stereo not shown) [Felodipine], `COC(=O)Nc1nc2ccc(C(=O)c3cccs3)cc2[nH]1` [Nocodazole] is higher in “Differences (%) in cell viability” value: 58.1% for the first, 76.4% for the second.

First: COc1cccc2c1[C@@H]1CN(CCCCn3c(=O)[nH]c4c(sc5ncc(-c6ccccc6)nc54)c3=O)C[C@@H]1CO2 [Fiduxosin hydrochloride]
Second: CN1C[C@H](CNC(=O)OCc2ccccc2)C[C@@H]2c3cccc4c3c(cn4C)C[C@H]21 [Metergoline]
The “Differences (%) in cell viability” value of the first is higher: 58.2% for the first, 56.5% for the second.

Compared with `O=S1(=O)N(CCN2CC=C(c3c[nH]c4cc(F)ccc34)CC2)c2cccc3c2N1CCC3` [LY-367,265], `CSc1ccc2c(c1)C(N1CCN(C)CC1)Cc1ccccc1S2` (stereo not shown) [Methiothepin mesylate] is higher in “Differences (%) in cell viability” value: 51.1% for the first, 52.4% for the second.

For `Cc1ccc(S(=O)(=O)N[C@@H](Cc2ccccc2)C(=O)CCl)cc1` [N-p-Tosyl-L-phenylalanine chloromethyl ketone], the “Differences (%) in cell viability” value was 63.9%.
